Test results taken from US8562986B2, “Engineered anti-alpha V-integrin hybrid antibodies” (Merck Patent GmbH, priority 2007, dated 2013).
pEC50, pIC50: −log10 of the molar value. “Also recorded” adds a separate entry of the source. Like-named read-outs stand apart in the source and are kept apart here.

Columns and labels:
[1] = tested on: NP18-b3 pancreatic tumor; assay: Orthotopic pancreatic xenograft; assay type: in vivo, nude mice; settings: EMD 525797 500 μg per animal or gemcitabine 50 mg/Kg, i.p. 3 times a week; 6 weeks
Description: NP18-b3 pancreatic human cell line, which expresses αvβ3-integrin, was implanted orthotopically into the pancreas of immunosuppressed mice. The animals were randomized to and one week later treatment with drugs and vehicle started.
Tumors were removed and cut into pieces of 10 mg each. These pieces were then sutured to the pancreas of healthy animals (one piece per animal). 4-6 weeks later, tumors were removed, cut into pieces again and stitched into new animals. Those new animals were then randomized and one week later treatment with drugs and vehicle was started. EMD 525797 was dosed i.p. at 500 μg per animal three times a week. Gemcitabine was administered as a suboptimal dose of 50 mg/Kg 3 times a week (suboptimal dose based on previous studies). In a fourth group, EMD 525797 was combined with suboptimal doses of gemcitabine based on previous experiments. Tumor growth measurement (weight of the removed tumors) was made 6 weeks after the tumor grafting.

[2] = tested on: HUVEC; assay: cells
Description: The experimental design gives answer to the question whether blockade of the one lowered the IC50 of the other for blockade endothelial cell growth in the presence of tumor growth factors VEGFA and FGF2.
Plates were coated with 100 μl VN at 1 μg/ml in PBS per 96-well at 4° C. overnight. […] When added in combination the two test substances were mixed at the starting concentrations and the mixture was serially diluted as for the single agents alone. In some assays the chemotherapeutics were serially diluted in the presence of a constant amount of the alpha V blockers at the IC50 or IC70 concentrations. Plates were incubated for 72 hours, then relative cell number was determined by the addition of 20 ul/well Alamar Blue (Resazurin).
Points were run in duplicate or in triplicate. Reagent blanks, containing media plus Alamar Blue without cells, were run on each plate.
Tests were routinely run using HUVEC in media containing 10 ng/ml FGF-2 or HDMVEC in media containing 10 ng/ml VEGF.

[3] = Serum levels and anti-antibody response in monkey Matrigel plug experiment; assay type: in vivo; settings: monkeys, single i.v. injection, up to end of study
Description: Serums were collected at three different points (from the legs): immediately before antibody injection, immediately (1-2 minutes) after antibody injection, and at the end of the study before animal sacrifice. […] To detect given serum dilution) were found at the two different time points in serum: immediately after antibody administration and at the end of the study.

[4] = tested on: αv-integrins; assay: Species specificity (immuno precipitation, western blotting); assay type: binding, human and monkey
Description: The molecular basis for this unusual profile has been unequivocally established by epitope mapping, sequence comparison, and x-ray co-crystallography. The epitope recognized by DI-17E6 is confirmed as unique to human and monkey by immuno precipitation and western blotting analysis performed with several species.

[5] = 4-weeks / repeat-dose toxicology study; assay type: in vivo, cynomolgus monkey
[6] = tested on: bacteria; assay: Bacterial screening test for mutagenic potential; assay type: cell-based
[7] = tested on: CAKI-1 renal carcinoma; assay: CAKI-1 renal carcinoma xenograft, monotherapy; assay type: in vivo, SCID or nude mice; settings: i.p. once per week
[8] = tested on: platelet thrombus formation; assay: Thrombus formation in perfusion chamber; assay type: cell-based; settings: dose-dependent
Description: To exclude possible side effects of the antibody on platelets, EMD 525797 was evaluated for inhibition of platelet aggregation in vitro with human platelet rich plasma/collagen. […] Aggregation and activation studies were carried out using Platelet Rich Plasma (PRP). Thrombus formation by perfusion chamber with exposed subendothelial matrix.

[9] = biological target: αvβ3 integrin (Homo sapiens, UniProt P06756); assay: Integrin binding ELISA
Description: Assay to determine binding of DI17E6 antibody to alpha V integrin receptor subunit The ability of the DI17E6 antibody to bind alpha V integrin was assayed using an ELISA. Briefly, various amounts of antibody were added to wells containing alpha V integrin, wells were then washed, and the bound antibody was assayed according to standard procedures.

[10] = T-cell epitope mapping score; set-up: species or system human; settings: T-cell epitope scoring
[11] = ADCC and CDC; assay type: cell-based
[12] = tested on: human melanoma cell lines m21, SKMEL-23, SKMEI, MeWo, WM-793; settings: cisplatin, paclitaxel, vinblastin, vincristin, temoyolomide
[13] = tested on: human endothelial cell adhesion to vitronectin; assay: Endothelial cell adhesion to vitronectin; assay type: cell-based; settings: read-out: EC50, inhibition of human endothelial cell adhesion to vitronectin
[14] = First clinical study in healthy volunteers, anti-drug antibodies; assay type: in vivo, human
Excerpt: This was meanwhile confirmed by a first clinical study carried out in the US in 2006/2007. […] In contrast to that, mouse 17E6 develops in animal models a strong immune response.

[15] = tested on: CAKI-1 xenograft tumors; assay: CAKI-1 renal cell carcinoma xenograft, with Erbitux; assay type: in vivo, mice; settings: 17.1 mg/kg loading then […] weekly i.p.
Description: The renal cell carcinoma cell line CAKI-1 was grown in RPMI containing 10% FCS (heat-inactivated) plus 2 mM glutamine. 1 mM sodium pyruvate. 100 units/ml penicillin and 100 ug/ml streptomycin. Cells were passaged at confluence by washing once in cation-free PBS followed by a 3 minute incubation in trypsin (0.5 ug/ml)/EDTA (0.2 ug/ml) solution in PBS at 37° C. Cells were recovered in medium, centrifuged and taken up in medium and counted.
The treatment started for all groups at day 0 of experiment (same day of cell injection).

[16] = tested on: VEGF-induced migration of human endothelial cells on vitronectin; settings: read-out: EC50, block of VEGF-induced migration of human endothelial cells on vitronectin
[17] = tested on: bFGF induced angiogenesis; assay: Matrigel plug model in monkeys; assay type: in vivo, Cynomologus monkeys; settings: 6 days
Description: Matrigel plugs containing bFGF were implanted s.c. into the abdomen of healthy Cynomologus monkeys. The animals were injected once with EMD 525797 i.v. at either 10 mg/Kg or 30 mg/Kg. Evaluation of angiogenesis was carried out 6 days after by quantification of the hemoglobin content in the Matrigel plugs.

[18] = Single dose immunogenicity study in monkeys (sandwich ELISA); assay type: in vivo, monkey; settings: 1 mg/Kg single i.v., 1, 3 and 6 weeks
Description: In another study the pharmacy kinetic parameters of a single dose of DI-17E6 in monkeys was assessed and in addition, this study was planned to investigate the immunogenicity of DI-17E6. […] Length of the assay was 6 weeks. Serums were drawn pre-dose, and 1, 3, and 6 weeks after administration. Levels of monkey antibodies against DI-17E6 were analyzed. In this study, immunogenicity was directly addressed using a specific sandwich ELISA method designated for this type of studies (method not validated yet).

[19] = tested on: M21-L tumors; assay: SCID mouse-human skin chimera model; assay type: in vivo; settings: 1 mg/dose i.p. 3 times per week, from one day after inoculation
Excerpt: Human skin containing human M21 melanoma cells were grafted by implantation/transplantation onto SCID or nude mice. Experimental tumors grew in this tissue after intradermal inoculation of tumor cells and the initial angiogenic vasculature was derived from vessels in the human skin. In the next experiment, the use of M21-L cells that have no av-integrins means that only those integrins expressed on the endothelial cells within the grafted human skin were targeted.

αvβ3 integrin, sequence (P06756 31-889 limits assumed): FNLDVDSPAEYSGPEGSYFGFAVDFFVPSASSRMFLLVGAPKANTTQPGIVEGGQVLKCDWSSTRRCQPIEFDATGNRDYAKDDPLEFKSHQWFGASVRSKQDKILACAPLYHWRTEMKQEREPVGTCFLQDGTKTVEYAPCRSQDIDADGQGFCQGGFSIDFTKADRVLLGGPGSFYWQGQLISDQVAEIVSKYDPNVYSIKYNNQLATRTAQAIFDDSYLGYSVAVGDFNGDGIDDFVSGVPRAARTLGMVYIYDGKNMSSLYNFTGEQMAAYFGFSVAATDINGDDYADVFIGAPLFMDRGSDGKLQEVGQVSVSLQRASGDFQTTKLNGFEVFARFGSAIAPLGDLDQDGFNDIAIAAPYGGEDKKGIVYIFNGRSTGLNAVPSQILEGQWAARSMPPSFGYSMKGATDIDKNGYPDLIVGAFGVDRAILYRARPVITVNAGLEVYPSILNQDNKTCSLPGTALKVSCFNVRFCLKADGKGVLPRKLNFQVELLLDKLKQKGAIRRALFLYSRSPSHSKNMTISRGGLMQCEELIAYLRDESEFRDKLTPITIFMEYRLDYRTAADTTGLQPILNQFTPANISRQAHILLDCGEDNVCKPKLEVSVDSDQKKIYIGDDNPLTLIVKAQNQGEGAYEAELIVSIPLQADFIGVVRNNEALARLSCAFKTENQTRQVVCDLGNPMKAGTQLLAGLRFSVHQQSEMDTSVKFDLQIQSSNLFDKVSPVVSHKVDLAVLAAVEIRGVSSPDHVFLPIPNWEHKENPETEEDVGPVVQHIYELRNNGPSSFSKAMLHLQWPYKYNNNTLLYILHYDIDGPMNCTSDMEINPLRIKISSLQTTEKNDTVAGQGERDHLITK
αvβ3 integrin, sequence (P06756 891-1048 partner limits assumed): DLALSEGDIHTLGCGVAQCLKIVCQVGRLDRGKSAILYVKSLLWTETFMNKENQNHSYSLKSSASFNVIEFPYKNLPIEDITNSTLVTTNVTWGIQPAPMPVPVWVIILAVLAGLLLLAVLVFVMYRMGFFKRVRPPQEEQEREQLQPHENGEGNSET
αvβ3 integrin, sequence (P05106 27-788 partner): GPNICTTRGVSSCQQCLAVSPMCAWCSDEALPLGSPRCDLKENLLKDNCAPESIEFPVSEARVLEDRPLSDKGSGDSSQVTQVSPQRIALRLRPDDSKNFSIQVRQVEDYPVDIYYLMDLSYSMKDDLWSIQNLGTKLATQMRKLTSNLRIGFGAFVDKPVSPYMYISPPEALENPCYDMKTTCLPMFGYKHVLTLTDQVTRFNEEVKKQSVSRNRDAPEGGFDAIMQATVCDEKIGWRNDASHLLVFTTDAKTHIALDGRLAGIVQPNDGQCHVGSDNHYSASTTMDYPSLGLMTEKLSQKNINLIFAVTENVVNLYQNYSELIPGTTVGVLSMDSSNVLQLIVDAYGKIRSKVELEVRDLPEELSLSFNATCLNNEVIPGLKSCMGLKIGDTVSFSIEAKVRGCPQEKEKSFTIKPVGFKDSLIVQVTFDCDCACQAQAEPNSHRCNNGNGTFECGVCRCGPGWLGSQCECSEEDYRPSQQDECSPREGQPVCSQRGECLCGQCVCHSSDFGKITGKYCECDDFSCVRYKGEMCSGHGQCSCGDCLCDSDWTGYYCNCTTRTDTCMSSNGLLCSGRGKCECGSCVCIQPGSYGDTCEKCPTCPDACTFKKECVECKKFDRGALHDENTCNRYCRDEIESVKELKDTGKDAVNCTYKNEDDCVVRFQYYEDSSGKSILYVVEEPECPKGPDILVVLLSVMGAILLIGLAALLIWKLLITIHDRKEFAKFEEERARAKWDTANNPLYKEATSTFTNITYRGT

Question: For `Nc1ccn([C@@H]2O[C@H](CO)[C@@H](O)C2(F)F)c(=O)n1` [Gemcitabine], which “tumor size and weight, monotherapy” value [1] is on record?
Answer: Its value is “not active”.

Question: And the pIC50 ([2]; Homo sapiens, HUVEC, 72 h, 10 ng/ml FGF-2, 72 hours, single agent)?
Answer: The pIC50 was 8.40.

Question: What about the “additive effect with Cilengitide” value ([2]; chemotherapeutic combined with Cilengitide) of the same compound?
Answer: Its value is “yes”.

Question: What about the “additive effect with DI-17E6” value ([2]; chemotherapeutic combined with DI-17E6) of the same compound?
Answer: Its value is “yes”.

Question: And the “additive effect with Mab 17E6” value ([2]; chemotherapeutic combined with Mab 17E6)?
Answer: The value was “yes”.

Question: With “DI-17E6: engineered de-immunized anti-αv integrin antibody: 17E6 CDRs, h425 light chain frameworks, human IgG2 with modified IgG1 hinge, N297Q, F296A” as the compound, how does the “serum levels of antibody” value [3] read?
Answer: Its value is “high serum levels at each time-point”.

Question: What about the species specificity [4] of the same compound?
Answer: Its species specificity is “human and monkey αv-integrins only”.

Question: And the tolerability ([5]; 10, 33 and 100 mg/kg once weekly for 4 weeks, intravenous infusion (1 h))?
Answer: Its tolerability is “well tolerated”.

Question: And the “treatment-related effects in 4-weeks toxicology study” value ([5]; clinical observations, body weight, ECG, clinical pathology, organ weight, histopathology)?
Answer: The value was “did not reveal any treatment-related effects”.

Question: What about the safety pharmacology alerts ([5]; repeat-dose-toxicity studies in cynomolgus monkey) of the same compound?
Answer: Its safety pharmacology alerts is “No safety pharmacology alerts”.

Question: And the mutagenic potential [6]?
Answer: The mutagenic potential was “not mutagenic”.

Question: What about the tumor volume ([7]; high dose (500 ug/ml)) of the same compound?
Answer: The tumor volume was “complete reduction of tumor volume”.

Question: And the tumor volume/size ([7]; low (1 ug/ml) to medium (100 ug/ml serum) doses)?
Answer: Its tumor volume/size is “can reduce tumor volume/size”.

Question: And the “platelet thrombus formation in the perfusion chamber” value [8]?
Answer: Its value is “blocks”.

Question: What about the “binding to αvβ3 integrin (in words)” value [9] of the same compound?
Answer: The value was “similar”.

Question: And the “binding to αvβ3 integrin (in words)” value ([9]; listed as DI-17E6-g2h(NtoQ)(C60Y))?
Answer: The value was “retains binding affinity”.

Question: What about the “Total score, heavy chain” value ([10]; heavy chain) of the same compound?
Answer: Its value is 85.

Question: What about the “Total score, light chain” value ([10]; light chain) of the same compound?
Answer: The value was 92.

Question: And the “ADCC and CDC” value [11]?
Answer: Its value is “neither antibody dependent cell cytotoxicity (ADCC) nor complement dependent cytotoxicity (CDC)”.

Question: And the “effect on the chemotherapeutic agent” value [12]?
Answer: The value was “not more than additive affects”.

Question: And the pEC50 [13]?
Answer: The pEC50 was ~8.00.

Question: And the IC50 ([2]; HUVEC, 10 ng/ml FGF-2, 72 hours, single agent)?
Answer: Its IC50 is 4 ng/mL.

Question: What about the “anti-drug antibodies in volunteers” value ([14]; group of 250 mg, 6 volunteers) of the same compound?
Answer: The value was “one volunteer developed anti-drug antibodies”.

Question: And the “anti-drug antibodies in volunteers” value ([14]; higher dose groups (500 mg and more))?
Answer: The value was “no volunteer developed any immune response; also recorded: not detected”.

Question: What about the “T/C at day 40, end of treatment” value [15] of the same compound?
Answer: Its value is 25%.

Question: And the serum trough values ([15]; mice)?
Answer: The serum trough values was 100 µg/mL.

Question: And the pEC50 [16]?
Answer: Its pEC50 is ~7.30.

Question: And the “new blood vessel formation (hemoglobin content of plugs)” value ([17]; 10 mg/Kg i.v. once)?
Answer: Its value is “inactive”.

Question: And the “new blood vessel formation (hemoglobin content of plugs)” value ([17]; 30 mg/Kg i.v. once)?
Answer: The value was “highly efficacious”.

Question: What about the “monkey antibodies against the antibody” value [18] of the same compound?
Answer: The value was “no monkey antibodies against DI-17E6 could be detected”.

Question: What about the “growth of M21-L tumors” value [19] of the same compound?
Answer: Its value is “inhibited growth”.
